From paper PMC12144419, “Early preclinical development of Mycobacteriumtuberculosis amino acid biosynthesis pathway inhibitor DRILS-1398 as a potential anti-TB drug” (iScience, 2025)
Several values for one entry are separate records, joined by “and”; a condition that tells them apart may be missing. Equal values may be shown once. Entries after “also recorded” stand apart in the source; their conditions may differ. Read-outs that look alike come from different tables or passages of the source.

What was measured:
[1] = target: M.tb chorismate mutase (M.tb-CM) (Mycobacterium tuberculosis, UniProt P9WIB9); assay: CM assay (in vitro substrate competition enzymatic assay, chorismate to prephenate, OD 274 nm); format: biochemical
Procedure: The activity of the CM enzyme was based on direct observation of the conversion of chorismate to prephenate at OD 274 nm.[32] The reaction volume of the assay was maintained at 100 μl. 1mM of the substrate, chorismic acid (Sigma) was pre-incubated at 37°C for 5 min in the buffer (containing 50mM Tris-HCl (pH 7.5), 0.5mM EDTA, 0.1 mg/mL bovine serum albumin, and 10 mM β-Mercaptoethanol). The reaction was started by adding 180 pmol of CM enzyme to the prewarmed chorismic acid solution. Inhibitory screening of the compounds against CM activity was measured at 100 nM to 50 μM concentration of the effectors. The reaction was allowed to proceed at 37°C and was terminated after 5 min with 100 μl of 1 N HCl. Disappearance of substrate was measured at 274 nm. A blank with no enzyme for every reaction was kept as a control to account for the non-enzymatic conversion of chorismate to prephenate.

MDR-M.tb ATCC 35825 = assay: Broth dilution MIC by turbidometry; format: cell-based; details: Mycobacterium tuberculosis, ATCC35825
M.tb. ATCC-27294 strain = assay: MIC against M.tb ATCC-27294; format: cell-based; details: Mycobacterium tuberculosis, ATCC27294
[2] = system: intracellular MDR-M.tb H37Rv (ATCC 35825) in activated THP-1 macrophages; assay: Intracellular efficacy THP-1 macrophage assay, MDR-M.tb ATCC 35825; format: cell-based, Mycobacterium tuberculosis
in vitro = in vitro ADME; details: mouse, plasma
Procedure: DRILS-1398 (5μM) was added to both sides of the membrane in an equilibrium dialysis system. Species-specific plasma (50% or 100%) was added to one side, and the system was allowed to reach equilibrium at 37 °C. LC-MS/MS measurements of compound concentration were performed on both sides of the membrane and the fraction of unbound compound was presented.[52]

[3] = Single-dose IV pharmacokinetics in male BALB/c mice; format: in vivo; details: mouse, 10 mg/kg
Procedure: The intravenous (IV) (10 mg/kg of DRILS-1398) dosing study on BALB/c male mice (n=3 per time point, not more than 2 bleeds per animal, total animals dosed n=12) was carried out on the following time points through saphenous veins; IV: 15 mins, 30 mins, 1, 2, 4, 6, 8 and 24 hr. Collected blood specimens were centrifuged at 6000rpm, 4°C for 10 minutes, and plasma was separated and stored at -80°C until analysis. […] Concentrations of analyte DRILS-1398 in mice plasma samples were determined using the Shimadzu LCMS-8045 LC-MS/MS system. The protocol was approved by the Institutional Animal Ethics Committee of the Preclinical Research Department, Anthem Biosciences Pvt. Ltd., Bangalore 560099, India (protocol number for 10 mg/kg IV PK study: ABD-7967B (ABD/IAEC/PR/89-17-20).

[4] = Repeated dose 7-day toxicity study; format: in vivo, BALB/c mice
Procedure: As per the guideline,[58]^,[59] 40 males and 40 females were assigned into four groups of ten animals/sex per group viz., Vehicle control (G1), Low dose (G2), Mid Dose (G3) and High dose (G4). The test item formulations were prepared freshly in Ultra-pure water type 1 as a vehicle. The vehicle alone was administered to the vehicle control (G1) animals. Test item formulations were administered daily once at dose levels of 125 (G2), 250 (G3) and 500 (G4) mg/kg b.w./day. All the animals were administered a dose volume of 10 mL/kg b.w. once daily for 7 consecutive days. All the animals were observed once daily for clinical signs, twice daily for mortality/morbidity, and on day 7 for detailed clinical examination. Body weights and feed consumption were recorded at weekly intervals. At the end of the experimental period (day 8), blood and harvested plasma specimens were analyzed for haematology and clinical chemistry parameters, respectively. Subsequently, the animals were euthanized and subjected to gross pathological examination. The specified organs were collected and preserved in 10% NBF for histopathological evaluation. The protocol was approved by the Institutional Animal Ethics Committee of the Preclinical Research Department, Anthem Biosciences Pvt. Ltd., Bangalore 560099, India. Study no: N23041 (ABD/IAEC/PR/296-23-24).

[5] = microsomes; for Mouse microsomal stability: 3 µM
CYP 2C9 = CYP 2C9 (Homo sapiens, UniProt P11712); assay: biochemical
Procedure: (§1) This study performed CYP inhibition assay using Vivid CYP P450 (1A2, 2C9, 2C19, 2D6, and 3A4) blue screening kits.[56] […] The fluorescent reading was taken using a microplate reader at excitation/emission wavelengths of 415/460 nm, respectively. The % of CYP inhibition of test/positive control at each tested concentration was calculated, and the IC50 value against each CYP isoform was plotted using Graph pad prism software.

CYP 2D6 = CYP 2D6 (Homo sapiens, UniProt P10635); assay: biochemical
Procedure: as §1

[6] = system: Salmonella typhimurium TA98, TA100 and TA1537; assay: Bacterial reverse mutation test (Ames); details: 3000.0, 949.5, 300.0, 94.9 and 30.0 μg/plate, with and without rat liver S9
CYP 1A2 = CYP 1A2 (Homo sapiens, UniProt P05177); assay: Vivid CYP inhibition, fluorescent substrate method
Procedure: as §1

M.tb H37Rv = assay: Histopathology (H&E, ZN stain) of lungs of infected mice
[7] = system: intracellular M.tb H37Rv (ATCC 27294) in activated THP-1 macrophages; assay: Intracellular efficacy THP-1 macrophage assay, M.tb H37Rv ATCC 27294
Procedure: The THP-1 cells were activated with PMA (phorbol 12-myristate-13-acetate) for differentiation into macrophages. After 72 hr of activation, the THP-1 macrophages were infected with M.tb H37Rv strain (ATCC-27294 and ATCC-35825) at a multiplicity of infection (MOI) of 1:10.[34]^,[35] The macrophage infection was allowed for 2 hrs at 37°C with 5% CO2. The media containing M.tb was discarded, and macrophage monolayers were washed twice with phosphate-buffered saline to remove the extracellular bacteria and replenished with fresh, complete RPMI. The M.tb-infected macrophages were exposed to compounds by transferring 200 μL of fresh media containing the respective concentrations of the compounds. Duplicate wells were lysed (0.05% SDS) at specific time points and enumerated to estimate the numbers of intracellular M.tb 2 hr post-infection. The 0.1 mL of lysate was serially diluted and plated onto Middle brook 7H11 agar plates for enumeration (read after 3 to 4 weeks) of live M.tb after compound treatment. After 3 and 7 day exposure to the compounds, the cells were treated the same way, and the live M.tb was enumerated. The efficacy of the test compound was assessed by comparing the M.tb counts from the respective days to day 0 and day 7.

[8] = up to 500 mg/kg b.w./day, 7 days

Sequence of M.tb chorismate mutase (M.tb-CM) (P9WIB9 34-199): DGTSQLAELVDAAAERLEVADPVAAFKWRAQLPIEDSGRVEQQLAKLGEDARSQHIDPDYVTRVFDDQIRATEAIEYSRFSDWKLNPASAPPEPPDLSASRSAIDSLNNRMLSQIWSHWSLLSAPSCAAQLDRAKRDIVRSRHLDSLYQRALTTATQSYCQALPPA
Sequence of CYP 2C9 (P11712 whole entry): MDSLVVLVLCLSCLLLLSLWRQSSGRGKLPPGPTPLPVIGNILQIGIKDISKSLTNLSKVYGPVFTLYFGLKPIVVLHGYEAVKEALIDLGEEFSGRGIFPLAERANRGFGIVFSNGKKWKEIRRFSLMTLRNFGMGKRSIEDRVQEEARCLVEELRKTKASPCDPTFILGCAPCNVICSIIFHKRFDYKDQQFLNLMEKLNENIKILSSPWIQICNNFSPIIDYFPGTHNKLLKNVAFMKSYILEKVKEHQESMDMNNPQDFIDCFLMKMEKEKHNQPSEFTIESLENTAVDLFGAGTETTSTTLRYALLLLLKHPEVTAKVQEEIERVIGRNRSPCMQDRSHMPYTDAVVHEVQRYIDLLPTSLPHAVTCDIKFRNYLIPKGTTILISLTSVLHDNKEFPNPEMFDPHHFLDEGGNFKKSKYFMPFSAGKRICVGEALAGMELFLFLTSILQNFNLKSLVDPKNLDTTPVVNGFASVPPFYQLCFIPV
Sequence of CYP 2D6 (P10635 whole entry): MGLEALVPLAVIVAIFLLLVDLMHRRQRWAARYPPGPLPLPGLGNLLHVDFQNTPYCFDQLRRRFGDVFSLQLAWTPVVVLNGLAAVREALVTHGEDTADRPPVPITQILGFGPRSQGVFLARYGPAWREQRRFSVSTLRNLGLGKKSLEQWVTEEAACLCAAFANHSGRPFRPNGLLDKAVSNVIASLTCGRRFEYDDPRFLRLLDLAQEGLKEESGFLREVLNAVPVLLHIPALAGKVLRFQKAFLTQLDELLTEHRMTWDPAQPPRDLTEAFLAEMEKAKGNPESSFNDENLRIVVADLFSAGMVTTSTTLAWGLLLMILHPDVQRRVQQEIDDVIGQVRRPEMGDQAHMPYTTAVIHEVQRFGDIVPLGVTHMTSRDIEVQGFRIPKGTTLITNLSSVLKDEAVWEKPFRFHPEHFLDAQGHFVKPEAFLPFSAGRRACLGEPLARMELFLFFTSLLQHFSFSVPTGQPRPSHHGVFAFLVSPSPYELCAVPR
Sequence of CYP 1A2 (P05177 whole entry): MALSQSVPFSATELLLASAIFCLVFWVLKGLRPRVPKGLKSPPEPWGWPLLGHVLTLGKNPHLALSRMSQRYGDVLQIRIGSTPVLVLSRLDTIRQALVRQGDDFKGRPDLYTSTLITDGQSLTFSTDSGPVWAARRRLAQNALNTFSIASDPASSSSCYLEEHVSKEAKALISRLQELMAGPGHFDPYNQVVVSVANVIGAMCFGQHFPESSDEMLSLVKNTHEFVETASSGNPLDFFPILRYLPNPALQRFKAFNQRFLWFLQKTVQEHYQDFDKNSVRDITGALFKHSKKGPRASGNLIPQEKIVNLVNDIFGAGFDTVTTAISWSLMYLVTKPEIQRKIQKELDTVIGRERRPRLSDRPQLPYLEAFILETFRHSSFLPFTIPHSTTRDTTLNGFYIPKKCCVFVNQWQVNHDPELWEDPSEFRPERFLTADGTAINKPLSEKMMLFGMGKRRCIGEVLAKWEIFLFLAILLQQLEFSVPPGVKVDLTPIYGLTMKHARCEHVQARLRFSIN

CCCc1nn(C)c2c(-c3c[nH]c4ccc(Cl)cc34)nc(-c3ccc(Cl)cc3)nc12 [DRILS-1398]
IC50 ([1]; IC50, inhibition of M.tb-CM activity, n = 3): 3 µM and ~3 µM
IC90 ([1]; read-out: IC90, inhibition of M.tb-CM activity): 10 µM
MIC (MDR-M.tb ATCC 35825): 4 µg/mL and ~10 µM
MIC (M.tb. ATCC-27294 strain; M.tb ATCC-27294): 6.53 µg/mL
MIC (M.tb. ATCC-27294 strain; M.tb ATCC-27294, converted): ~15 µM
cfu reduction vs day-3 control ([2]; Fig 4C, day 3, C1: DRILS-1398 15 μM, rifampicin 13.16 μM): 0.40 log10 cfu/mL
cfu reduction vs day-7 control ([2]; Fig 4C, day 7, C1: DRILS-1398 15 μM, rifampicin 13.16 μM): 0.70 log10 cfu/mL
cfu reduction vs day 7 control, combination study ([2]; Fig 4E, day 7, DRILS-1398 15 μM, rifampicin 19.45 μM, alone or combined): 0.77 log10 cfu/mL
fraction unbound at 5 µM (in vitro): ~0.0184
Approximate free drug concentration in blood plasma ([3]; in vivo): ~0.4 µM
clearance ([3]; in vivo): 35 mL/min/kg
half-life ([3]; plasma, IV 10 mg/kg): ~8.25 h
Clinical signs of toxicity, mortality/morbidity ([4]; oral gavage up to 500 mg/kg b.w./day once daily for 7 days, both genders): no adverse clinical signs of toxicity and mortality/morbidity
Effects on body weight, weight gain, feed consumption, hematological and clinical chemistry parameters [4, 8]: No treatment-related adverse effects
Histopathological evaluation of examined tissues [4, 8]: no treatment-related adverse effects
Mouse microsomal stability ([5]; 2 min): 56.45%
Mouse microsomal stability ([5]; 5 min): 53.42%
Mouse microsomal stability ([5]; 0.25 h): 42.18%
Mouse microsomal stability ([5]; 0.75 h): 24.61%
Mouse microsomal stability ([5]; 2 h): 26.57%
Microsomal stability, verdict ([5]; mouse): moderately stable
solubility (physchem): ≥ 50 mg/mL
IC50 (CYP 2C9): 12.2 µM
IC50 (CYP 2D6): > 30 µM
Mutagenic potential [6]: did not show any mutagenic potential; also recorded: non-mutagenic
IC50 (CYP 1A2): > 30 µM
Granuloma in the lung (M.tb H37Rv; DRILS-1398 and DRILS-1398(F) 30 mg/kg, isoniazid 5 mg/kg): no signs of granuloma
Granuloma (M.tb H37Rv; Table S4, lung of infected treated mice): -
Necrosis of the lung tissue (M.tb H37Rv; mouse, in vivo): not observed
Acid-fast bacilli load in lung, ZN staining (M.tb H37Rv; vs infected mice without drug): significant decrease in bacilli load
cfu reduction vs day-3 control ([7]; Fig 4B, day 3, C1: DRILS-1398 15 μM, rifampicin 13.16 μM): 0.59 log10 cfu/mL
cfu reduction vs day-7 control ([7]; Fig 4B, day 7, C1: DRILS-1398 15 μM, rifampicin 13.16 μM): 1.00 log10 cfu/mL
cfu reduction vs day 3 control, combination study ([7]; Fig 4D, day 3, DRILS-1398 15 μM, rifampicin 19.45 μM, alone or combined): 0.42 log10 cfu/mL
cfu reduction vs day 7 control, combination study ([7]; Fig 4D, day 7, DRILS-1398 15 μM, rifampicin 19.45 μM, alone or combined): 0.98 log10 cfu/mL
